Laboratory results published in patent US7977325B2, “3-amino-pyrazolo[3,4b]pyridines as inhibitors of protein tyrosine kinases, their production and use as pharmaceutical agents” (Bayer Schering Pharma AG, priority 2004, dated 2011).

molecular target: T1, recombinant EphB4 kinase (Homo sapiens, UniProt P54760); assay: Test System for EphB4 (HTRF kinase assay); type: biochemical; details: polyGluAlaTyr substrate, 2 μmol of ATP, read-out: IC50 of EphB4 kinase inhibition
T1 construct: purchased ProQinase GmbH, Freiburg, Germany
T1 sequence (P54760 16-987): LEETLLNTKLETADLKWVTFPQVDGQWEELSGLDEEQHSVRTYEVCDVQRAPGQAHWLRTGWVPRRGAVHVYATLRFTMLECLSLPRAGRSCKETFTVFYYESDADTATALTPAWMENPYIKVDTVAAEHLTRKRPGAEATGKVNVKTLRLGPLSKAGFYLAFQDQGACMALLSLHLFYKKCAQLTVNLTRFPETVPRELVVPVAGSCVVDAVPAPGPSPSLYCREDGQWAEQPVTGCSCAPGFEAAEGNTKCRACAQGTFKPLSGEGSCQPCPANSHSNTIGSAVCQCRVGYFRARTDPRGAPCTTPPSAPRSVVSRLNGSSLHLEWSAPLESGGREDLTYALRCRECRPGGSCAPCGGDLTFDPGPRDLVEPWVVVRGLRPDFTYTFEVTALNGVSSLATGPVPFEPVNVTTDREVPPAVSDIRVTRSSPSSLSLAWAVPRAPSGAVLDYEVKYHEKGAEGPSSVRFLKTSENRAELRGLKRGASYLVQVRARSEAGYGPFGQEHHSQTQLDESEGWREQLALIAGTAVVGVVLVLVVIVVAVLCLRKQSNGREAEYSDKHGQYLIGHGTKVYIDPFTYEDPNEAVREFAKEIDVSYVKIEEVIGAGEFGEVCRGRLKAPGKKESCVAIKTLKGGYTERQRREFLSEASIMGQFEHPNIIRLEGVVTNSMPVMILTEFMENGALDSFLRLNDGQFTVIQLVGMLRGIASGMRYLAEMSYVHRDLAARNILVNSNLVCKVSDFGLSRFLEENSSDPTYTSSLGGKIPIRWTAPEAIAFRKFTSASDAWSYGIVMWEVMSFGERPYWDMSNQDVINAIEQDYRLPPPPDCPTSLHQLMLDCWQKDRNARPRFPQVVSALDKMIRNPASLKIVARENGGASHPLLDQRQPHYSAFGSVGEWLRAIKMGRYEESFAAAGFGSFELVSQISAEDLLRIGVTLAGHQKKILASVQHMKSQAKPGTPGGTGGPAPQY
Method: A mixture that consists of 20 ng/ml of recombinant EphB4 kinase (related to ProQinase GmbH, Freiburg, Germany), 2.67 μg/ml of polyGluAlaTyr, 2 μmol of ATP, 25 mmol of HEPES (pH 7.3), 5 mmol of MgCl2, 1 mmol of MnCl2, 2 mmol of DTT, 0.1 mmol of NaVO4, 1% (v/v) glycerol, 0.02% NP40, EDTA-free protease inhibitors (Complete Fa. [Company] Roche, 1 tablet in 50 ml) is incubated at 20° C. for 10 minutes. Test substances are dissolved in 100% DMSO and introduced in 0.017× volume before the beginning of the reaction. 60 minutes after the addition of 1.7× volume of a solution of 50 mmol of Hepes, pH 7.0, 0.2% BSA, 0.14 μg/ml of PT66-europium, 3.84 μg/ml of SA-XL665, and 75 mmol of EDTA, the batch is measured in a Discovery HTRF-measuring device of the PerkinElmer Company.

**Q.** With `COc1cccc(-c2cc(C(C)(C)C)nc3[nH]nc(N)c23)c1` [Example 6, 6-tert-Butyl-4-(3-methoxyphenyl)-1H-pyrazolo[3,4b]pyridin-3-ylamine] as the molecule, how does the IC50 read?
**A.** 6.1 µM

same assay, conditions: polyGluAlaTyr substrate, 2 μmol of ATP, read-out: IC50 of EphB4 kinase inhibition (stated as upper bound)

**Q.** Which IC50 does the source give for `COc1cccc(-c2cc(C(C)(C)C)nc3[nH]nc(N)c23)c1` [Example 6, 6-tert-Butyl-4-(3-methoxyphenyl)-1H-pyrazolo[3,4b]pyridin-3-ylamine] here?
**A.** < 10 µM

**Q.** With `Cc1ccc(-c2cc(C3CCC(N4CCCCC4)CC3)nc3[nH]nc(N)c23)cc1` (centres unmarked) [Example 16, 6-(4-Piperidin-1-yl-cyclohexyl)-4-p-tolyl-1H-pyrazolo[3,4b]pyridin-3-ylamine] as the molecule, how does the IC50 read?
**A.** < 10 µM

**Q.** `Cc1ccc(-c2cc(C3CCC(N4CCNCC4)CC3)nc3[nH]nc(N)c23)cc1` (centres unmarked) [Example 14, 6-(4-piperazin-1-yl-cyclohexyl)-4-p-tolyl-1H-pyrazolo[3,4b]pyridin-3-ylamine] was tested. Which IC50 did it give?
**A.** < 10 µM

**Q.** Which IC50 does the source give for `COc1cc(OC)cc(-c2cc(C(C)(C)C)nc3[nH]nc(N)c23)c1` [Example 39, 6-tert-Butyl-4-(3,5-dimethoxyphenyl)-1H-pyrazolo[3,4-b]pyridin-3-ylamine] here?
**A.** < 10 µM

**Q.** With `Cc1ccc(-c2cc(C3CCC(=O)CC3)nc3[nH]nc(N)c23)cc1` [Example 12, 4-(3-Amino-4-p-tolyl-1H-pyrazolo[3,4b]pyridin-6-yl)-cyclohexanone] as the molecule, how does the IC50 read?
**A.** < 10 µM

**Q.** For `CC(C)Oc1cc(O)cc(-c2cc(C(C)(C)C)nc3[nH]nc(N)c23)c1` [Example 40], which IC50 is on record?
**A.** < 10 µM

**Q.** How did the IC50 turn out when `Nc1n[nH]c2nc(C3CC3)cc(-c3ccc(Cl)c(Cl)c3)c12` [Example 51, 6-Cyclopropyl-4-(3,4-dichlorophenyl)-1H-pyrazolo[3,4-b]pyridin-3-ylamine] was run?
**A.** < 10 µM

**Q.** Which IC50 does the source give for `Cc1ccc(O)cc1-c1cc(-c2ccncc2)nc2[nH]nc(N)c12` [Example 35, 3-(3-Amino-6-pyridin-4-yl-1H-pyrazolo[3,4-b]pyridin-4-yl)-4-methyl-phenol] here?
**A.** < 10 µM

**Q.** How did the IC50 turn out when `CC(C)(C)c1cc(-c2cc(O)ccc2[N+](=O)[O-])c2c(N)n[nH]c2n1` [Example 41, 3-(3-Amino-6-tert-butyl-1H-pyrazolo[3,4b]pyridin-4-yl)-4-nitro-phenol] was run?
**A.** < 10 µM

**Q.** With `COc1cc(O)cc(-c2cc(-c3ccncc3)nc3[nH]nc(N)c23)c1` [Example 33, 3-(3-Amino-6-pyridin-4-yl-1H-pyrazolo[3,4-b]pyridin-4-yl)-5-methoxyphenol] as the molecule, how does the IC50 read?
**A.** < 10 µM
